Results taken from patent publication US12325708B2, “Adenosine 2 receptor antagonists” (Nektar Therapeutics, priority 2019, dated 2025).

Columns and labels:
[1] = Brain-to-plasma ratio (B/P) after administration; assay type: in vivo, Sprague-Dawley rats; settings: Sprague-Dawley, rat, brain-to-plasma ratio at 1 h
Description: A similar unexpected result was obtained when the phenyl ring present on Compound 1 was replaced with a halogen substituted pyridine. The halogen was previously introduced on the phenyl ring with the aim of blocking a possible metabolic soft-spot, with similar results observed as for Compound 1 in terms of exposure, clearance and bioavailability (Compound 10 and Compound 15). The substituted pyridine ring was designed to modulate the lipophilicity and polar surface area, as well as to address metabolic soft-spot concerns. Clearance and bioavailability parameters remain similar between substituted phenyl and pyridine (Compound 4 and Compound 14) analogs, which span a range in cLogP of 2.7-3.2. It was therefore surprising the significant improvement in exposure and clearance observed for the more lipophilic Compound 19. […] A compound is commonly deemed to be a brain penetrant if the brain-to-blood/plasma concentration ratio (B/P) is greater than 0.04 using methods as known in the art (Schaffer, Annual Reports in Medicinal Chemistry, 45:55-70, 2010).
Plasma pharmacokinetic parameters were determined following oral (PO) administration of further compounds essentially as described in Example 28 with the results shown in Table 6.

A1 receptor = molecular target: T1, A1 receptor (Homo sapiens, UniProt P30542); assay: Radioligand receptor binding assay, A1 receptor; settings: cell membranes overexpressing A1 receptor, read-out: Potency Ki A1
T1 construct: purchased
T1 sequence (P30542 1-326): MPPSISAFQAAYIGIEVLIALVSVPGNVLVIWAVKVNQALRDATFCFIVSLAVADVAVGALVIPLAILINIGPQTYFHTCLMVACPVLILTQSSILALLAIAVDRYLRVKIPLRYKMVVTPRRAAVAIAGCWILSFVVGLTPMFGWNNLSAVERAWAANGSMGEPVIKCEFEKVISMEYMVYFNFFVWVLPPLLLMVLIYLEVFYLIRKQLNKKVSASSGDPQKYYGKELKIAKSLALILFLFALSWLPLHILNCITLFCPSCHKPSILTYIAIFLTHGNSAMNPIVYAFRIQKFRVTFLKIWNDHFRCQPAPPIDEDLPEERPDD
Experimental: (§1) Using conventional receptor binding assay techniques, Compounds 1-24 were assayed to determine binding activity at the A2A, A1, and A3 receptors with the results shown in Table 7.
(§2) Receptor binding affinity of Compounds 1-24 was measured using radioligand binding assays using commercially obtained cell membranes prepared from cell lines overexpressing the A2A, A1, or A3 receptors. Briefly, cell membrane preparations from cells expressing the specific receptor were mixed with the appropriate [^3H]-labeled tracer for the specific receptor and the test compound or a known inhibitor of receptor-ligand binding. Following 60 min incubation at room temperature to allow receptor-ligand complex formation, the complexes were collected by filtration, washed with 50 mM Tris HCl (pH 7.5) to remove radioligand that was not receptor-bound, and the remaining radioactivity determined by liquid scintillation counting. Specific radioligand binding was calculated for each test compound concentration and IC50 values were determined by non-linear, regression analysis. Inhibition constants (Ki) were calculated using the equation of Cheng and Prusoff using the observed IC50 of the tested compound, the concentration of radioligand employed in the assay and the experimentally determined values for the Kd of the ligand.

A2A receptor = molecular target: T2, A2A receptor (Homo sapiens, UniProt P29274); assay: Radioligand receptor binding assay, A2A receptor; settings: cell membranes overexpressing A2A receptor, read-out: Potency Ki A2A
T2 construct: purchased
T2 sequence (P29274 whole entry): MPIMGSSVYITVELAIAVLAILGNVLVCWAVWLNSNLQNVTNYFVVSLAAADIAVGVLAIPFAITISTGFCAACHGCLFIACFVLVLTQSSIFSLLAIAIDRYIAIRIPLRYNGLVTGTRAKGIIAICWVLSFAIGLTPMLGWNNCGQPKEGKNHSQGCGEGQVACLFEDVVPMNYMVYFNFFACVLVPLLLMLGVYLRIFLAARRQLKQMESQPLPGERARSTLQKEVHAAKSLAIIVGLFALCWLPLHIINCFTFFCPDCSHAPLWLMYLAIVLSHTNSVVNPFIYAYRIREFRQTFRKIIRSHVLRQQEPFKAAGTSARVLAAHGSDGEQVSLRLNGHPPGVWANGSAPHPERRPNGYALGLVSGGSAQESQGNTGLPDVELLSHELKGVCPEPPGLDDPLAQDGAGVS
Experimental: as §1, §2

[2] = Plasma pharmacokinetic parameters following intravenous (IV) or oral (PO) administration in rats; assay type: in vivo, Sprague-Dawley rats; settings: male, Sprague-Dawley, rat, plasma; for AUC / bioavailability: 2.5 mg/kg; for clearance: intravenous, 0.5 mg/kg
Experimental: (§3) Adult male Sprague-Dawley rats (230-250 g) (Charles River Labs, Hollister, CA) were utilized for the study. There were 2 rats/group. All animals were food fasted overnight with water provided ad libitum at all times. Compounds 1, 4, 14 and 19 were synthesized as described in Examples 2, 17, 7, and 12, respectively, and formulated in injectable water.
(§4) The morning of each dosing, individual doses were calculated based on current body weights on the day of dosing. The jugular vein cannula (JVC) and the carotid artery cannula (CAC) were externalized, flushed with HEP/saline (10 IU/mL HEP/mL saline), plugged, and labeled to identify the jugular vein and the carotid artery. The IV group animals were dosed at 0.5 mg/kg of Compound 1, 4, 14 or 19, respectively, intravenously via the jugular vein, while the PO dose was administered 2.5 mg/kg of Compound 1, 4, 14 or 19, respectively, orally via gavage. For the IV group, immediately following the dose of test article, the dead volume of the catheter was flushed with 0.9% saline to ensure the animals received the full dose.
Approximately 0.2 mL of blood was collected per time point from JVC. Blood samples were collected at 2 (IV group only), 5, 15, 30, 60, 120, 240, 360, 420 (Compound 19 only), 480, 720 (Compound 19 only), and 1440 minutes via the CAC and transferred immediately into K2EDTA coated tubes pre-loaded 2 μl with quenching cocktail and placed on wet ice. The samples were centrifuged within 30 min after collection at 10,000 RPM for 5 minutes and the resulting plasma was separated. Plasma was transferred into microfuge tubes and placed on dry ice immediately. The plasma samples were stored at approximately −70° C. until bioanalysis.
Plasma samples were extracted by protein precipitation with acetonitrile containing 0.1% formic acid and doxepin for Compound 1 (available from Sigma-Aldrich) or SCH58261 for Compounds 4, 14 and 19 (available from Sigma-Aldrich) as an internal standard. Following vortex and centrifugation, supernatant was diluted 3-fold with water containing 0.1% formic acid and analyzed by LC-MS/MS.
Pharmacokinetic parameters (PK) were determined by non-compartmental analysis (NCA) using Phoenix 64 WinNonlin (version 8) and Dotmatics (version 5.0). Nominal doses and time points were used for the analysis.
The following PK parameters were estimated using plasma concentration-time profile of each animal with the results presented in Table 3: • AUCinf Area under the concentration-time from zero to time infinity • AUClast Area under the concentration-time from zero to time of last concentration value • F Bioavailability • CL Total body clearance • Cmax Maximum (peak) concentration • MRTlast Mean residence time to last observable concentration • Tmax Time to reach maximum or peak concentration following administration • Vss Volume of distribution at steady state
as §3, with “Compound 1 was” for “Compounds 1, 4, 14 and 19 were”, “Example 2” for “Examples 2, 17, 7, and 12, respectively,”
as §4, with “1” for “1, 4, 14 or 19, respectively,”
Approximately 0.2 mL of blood was collected per time point from JVC. […]

mouse CT-26 cells = assay: Antitumor activity in CT26 subcutaneous tumor model in Balb/c mice; assay type: in vivo; settings: day 13 vs vehicle; 30 mg/kg qdx9 PO + anti-PD1 antibody 200 μg/mouse q2dx4 IP
Experimental: Mice used were ˜ 6-8 week-old female Balb/c mice subcutaneously inoculated with 2×10^6 mouse CT-26 cells. […] The mice were divided into six treatment groups as follows: vehicle (qdx9) PO+IP, Compound 1 (10 mg/kg, qdx9)+an exemplary anti-mouse PD1 (CD279) antibody (BioXCell) (200 μg/mouse, q2dx4); Compound 1 (30 mg/kg, qdx9)+anti-PD1 antibody (200 μg/mouse, q2dx4), Compound 1 (100 mg/kg)+anti-PD1 antibody (200 μg/mouse, q2dx4), anti-PD1 antibody (200 μg/mouse, q2dx4), or preladenant (30 mg/kg, qdx9)+anti-PD1 antibody (200 μg/mouse, q2dx4). Compound 1 and preladenant were administered orally. The anti-PD1 antibody was administered IP. Body weight was measured daily. Tumor growth of the CT26 cells was monitored three times per week by measuring the tumor volume size using a caliper with the results shown in FIG. 5.

[3] = Table 6, oral (PO) administration essentially as described in Example 28
[4] = Table 6, essentially as described in Example 28
[5] = po, Table 6, oral (PO) administration essentially as described in Example 28
[6] = oral, Table 2 summary of Example 27, values marked 1 are the average of experiments

Compound	Kp at 1 h ([1]; oral, 2.5 mg/kg, Table 6)	Ki (A1 receptor) [µM]	Ki (A2A receptor) [µM]	AUC [2, 3] [µg·h/mL]	clearance [2, 4] [L/h/kg]	bioavailability [2, 5] [%]	Kp at 1 h ([1]; Table 2)	clearance ([2]; Table 2 summary of Example 27, values marked 1 are the average of experiments) [L/h/kg]	AUC [2, 6] [µg·h/mL]	bioavailability [2, 6] [%]	% TGI (mouse CT-26 cells)
[2H]C([2H])([2H])OC([2H])([2H])C([2H])([2H])Oc1ccc(N2C([2H])([2H])C([2H])([2H])N(C([2H])([2H])C([2H])([2H])N(c3cc4nc(-c5ncco5)nn4c(N)n3)C([2H])([2H])[2H])C([2H])([2H])C2([2H])[2H])cc1 [Compound 20, N^7-(^2H3)methyl-N^7-[2-{4-[4-({2-[(^2H3)methyloxy](^2H4)ethyl}oxy)phenyl](^2H8)piperazin-1-yl}(^2H4)ethyl]-2-(1,3-oxazol-2-yl)[1,2,4]triazolo[1,5-c]pyrimidine-5,7-diamine]	0.05	> 100	0.006	1.17	1.02	50					
COCCOc1cnc(N2CCN3[C@H](CC[C@H]3CN(C)c3cc4nc(-c5ncco5)nn4c(N)n3)C2)c(F)c1 [Compound 21, N^7—({(6S,8aR)-2-[3-fluoro-5-(2-methoxyethoxy)pyridin-2-yl]octahydropyrrolo[1,2-a]pyrazin-6-yl}methyl)-N^7-methyl-2-(1,3-oxazol-2-yl)[1,2,4]triazolo[1,5-c]pyrimidine-5,7-diamine]	0.05	3.08	0.008	0.429	1.8	31					
COCCOc1ncc(N2CCN(CCN(C)c3cc4nc(-c5ncco5)nn4c(N)n3)CC2)cc1C(F)(F)F [Compound 22, N^7-(2-{4-[6-(2-methoxyethoxy)-5-(trifluoromethyl)pyridin-3-yl]piperazin-1-yl}ethyl)-N^7-methyl-2-(1,3-oxazol-2-yl)[1,2,4]triazolo[1,5-c]pyrimidine-5,7-diamine]	0.03	3.2	0.011	0.28	2.28	25					
COCCOc1ccc(N2CCN(CCN(C)c3cc4nc(-c5ncco5)nn4c(N)n3)CC2)nc1 [Compound 23, N^7-(2-{4-[5-(2-methoxyethoxy)pyridin-2-yl]piperazin-1-yl}ethyl)-N^7-methyl-2-(1,3-oxazol-2-yl)[1,2,4]triazolo[1,5-c]pyrimidine-5,7-diamine]	0.08	15.5	0.009	0.336	3.12	42					
COCCOc1ccc(N2CCN(CCNc3cc4nc(-c5ncco5)nn4c(N)n3)CC2)cc1 [Compound 24, N^7-(2-{4-[4-(2-methoxyethoxy)phenyl]piperazin-1-yl}ethyl)-2-(1,3-oxazol-2-yl)[1,2,4]triazolo[1,5-c]pyrimidine-5,7-diamine]	0.11	> 10	0.043	1.07	1.68	70					
COCCOc1ccc(N2CCN(CCN(C)c3cc4nc(-c5ccco5)nn4c(N)n3)CC2)cc1 [Reference compound, 2-(furan-2-yl)-N^7-(2-(4-(4-(2-methoxyethoxy)phenyl)piperazin-1-yl)ethyl)-N^7-methyl-[1,2,4]triazolo[1,5-c]pyrimidine-5,7-diamine, reference compound]		1.27	0.0026				0.17	2.04	0.408	34	
Preladenant [reference compound]											56^3%
